The values below come from US7041705B2, “Injectable aqueous dispersions of propofol” (Jagotec AG, priority 1998, dated 2006).

This series has as its system human whole-blood (erythrocytes). Conditions: both. The protocol:
In-vitro evaluation of the hemolytic influence of the preparations of this invention on human whole-blood was determined as a further guide to selecting formulations with a low tendancy to produce irritation around the site of injection. The hemolytic potential of the formulation on blood was evaluated by the assay of erythrocyte cytoplasmic marker enzyme, lactate dehydrogenase (LDH). Measurement of erythrocyte cytoplasmic marker enzyme. LDH, which escapes from the leaky or ruptured erythrocytes into tie plasma compartment of the blood, is one of the commonly used quantitative assays described in literature for evaluation of hemolytic potential of injectable formulations (Stenz and Bauer, 1996). The blood was obtained from male or female Caucasian human volunteers of 18 to 65 years age and stabilized with sodium heparin. The test formulation was mixed with an equal volume of human whole blood and incubated at 37° C. for about 1 hour. The mixture was then held at ambient temperature for 30 min. followed by centrifugation at 1500 rpm for 10 min. The level of LDH in the supernatant was determined by a standard procedure known to the scientists skilled in this art.

Counter-ions that a name gives are not always drawn. Like-named read-outs stand apart in the source and are kept apart here.

As to `CCCCc1oc2ccccc2c1C(=O)c1cc(I)c(OCCN(CC)CC)c(I)c1` [Amiodarone hydrochloride], the LDH by setting is: (1.8 mg/mL) 673 IU/L; (50 mg/mL) 8190 IU/L.
